Source: patent US11572402B2, “Method for promoting diversification of antibody variable region” (Chiome Bioscience Inc., priority 2017, dated 2023)

Test system: CL18_M− cell line
Test: Light chain gene conversion (GC) analysis according to Reversion assay
Assay type: cell-based, chicken
Conditions: one and two weeks of culture, PI3Kα Inhibitor 2 at 200 nM, versus CAL-101, CZC 24832, AS 604850 and CS(−)
Experimental: A frozen stock of the CL18_M− cell line (3.0×10^6 cells) was awaken with 10 mL of CS(−) medium, using a 25 cm^2 Flask, and the cells were then cultured in a CO2 incubator (39.5° C., 5% CO2). On the following day, 2 mL each of a CS(−) medium, to which each drug had been added, was added into each well of a 24 deep well plate (ThermoFisher Scientific, 95040480), and the cells were then seeded thereon to a cell density of 6.0×10^4 cells/mL (wherein the cell concentration and the survival rate were measured using CASY cell counter). After individual samples had been cultured for 2 days, the samples were subcultured under the same conditions to result in a cell density of 1.0×10^4 cells/mL. […] Thereafter, a plot, in which the vertical axis indicated FITC (Goat anti-Chicken IgM Antibody FITC Conjugated) and the longitudinal axis indicated PE (none), was developed, and the percentage of PE-_FITC+(cIgM+) cells was then calculated.
Meanwhile, after completion of the culture for 7 days, individual samples were subcultured under the same conditions to result in a cell density of 6.0×10^4 cells/mL. […] At the time point of Day 14 of the culture, individual samples were measured using FACS Canto II Flow Cytometer, as with the measurement on Day 7. […]

Cc1nc(NC(=O)N2CCC[C@H]2C(N)=O)sc1-c1csc(C(C)(C)C)n1 [A66]
Reversion activity (percentage of IgM expression-positive cells): higher Reversion activity
